Experiments:
Format in all cases: cell-based
OCT2 [1] = molecular target: T1, OCT2 (Homo sapiens, UniProt O15244); experiment: […]TEA uptake inhibition in OCT2-transfected HEK293 cells, Dixon plot
T1 sequence (O15244 1-555): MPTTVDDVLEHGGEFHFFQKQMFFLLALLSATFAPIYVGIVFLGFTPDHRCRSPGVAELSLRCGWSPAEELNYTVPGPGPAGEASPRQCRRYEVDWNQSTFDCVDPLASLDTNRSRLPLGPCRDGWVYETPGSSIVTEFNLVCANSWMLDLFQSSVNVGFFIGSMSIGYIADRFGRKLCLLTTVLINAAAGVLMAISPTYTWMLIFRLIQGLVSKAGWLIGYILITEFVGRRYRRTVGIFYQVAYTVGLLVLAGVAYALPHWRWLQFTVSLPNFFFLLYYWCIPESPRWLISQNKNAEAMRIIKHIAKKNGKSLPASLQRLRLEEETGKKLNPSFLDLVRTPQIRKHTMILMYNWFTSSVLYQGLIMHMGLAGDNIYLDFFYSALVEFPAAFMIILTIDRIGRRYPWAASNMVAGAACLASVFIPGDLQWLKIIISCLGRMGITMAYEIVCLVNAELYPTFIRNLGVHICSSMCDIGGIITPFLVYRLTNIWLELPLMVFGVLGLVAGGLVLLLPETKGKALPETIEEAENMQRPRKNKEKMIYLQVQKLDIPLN

mouse Oct1 = molecular target: T2, mouse Oct1 (Mus musculus, UniProt O08966); experiment: TEA and ASP+ uptake inhibition in mOct1-transfected HEK293 cells
T2 sequence (O08966 1-556): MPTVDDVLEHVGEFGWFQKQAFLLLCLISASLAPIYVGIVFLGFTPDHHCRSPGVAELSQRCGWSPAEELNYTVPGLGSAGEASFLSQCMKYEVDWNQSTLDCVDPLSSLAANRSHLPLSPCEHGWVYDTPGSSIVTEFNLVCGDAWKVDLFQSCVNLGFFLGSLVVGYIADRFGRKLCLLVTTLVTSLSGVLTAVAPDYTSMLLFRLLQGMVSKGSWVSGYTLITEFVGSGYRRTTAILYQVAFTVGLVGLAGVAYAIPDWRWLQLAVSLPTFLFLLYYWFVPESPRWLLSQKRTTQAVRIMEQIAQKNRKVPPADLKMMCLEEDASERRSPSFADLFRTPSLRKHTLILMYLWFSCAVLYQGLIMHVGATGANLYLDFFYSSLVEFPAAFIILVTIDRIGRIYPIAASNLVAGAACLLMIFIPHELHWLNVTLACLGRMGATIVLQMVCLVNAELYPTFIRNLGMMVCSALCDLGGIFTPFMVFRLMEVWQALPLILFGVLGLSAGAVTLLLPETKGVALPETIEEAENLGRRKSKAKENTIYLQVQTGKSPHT

mouse Oct2 = molecular target: T3, mouse Oct2 (Mus musculus, UniProt O70577); experiment: TEA and ASP+ uptake inhibition in mOct2-transfected HEK293 cells
T3 sequence (O70577 1-553): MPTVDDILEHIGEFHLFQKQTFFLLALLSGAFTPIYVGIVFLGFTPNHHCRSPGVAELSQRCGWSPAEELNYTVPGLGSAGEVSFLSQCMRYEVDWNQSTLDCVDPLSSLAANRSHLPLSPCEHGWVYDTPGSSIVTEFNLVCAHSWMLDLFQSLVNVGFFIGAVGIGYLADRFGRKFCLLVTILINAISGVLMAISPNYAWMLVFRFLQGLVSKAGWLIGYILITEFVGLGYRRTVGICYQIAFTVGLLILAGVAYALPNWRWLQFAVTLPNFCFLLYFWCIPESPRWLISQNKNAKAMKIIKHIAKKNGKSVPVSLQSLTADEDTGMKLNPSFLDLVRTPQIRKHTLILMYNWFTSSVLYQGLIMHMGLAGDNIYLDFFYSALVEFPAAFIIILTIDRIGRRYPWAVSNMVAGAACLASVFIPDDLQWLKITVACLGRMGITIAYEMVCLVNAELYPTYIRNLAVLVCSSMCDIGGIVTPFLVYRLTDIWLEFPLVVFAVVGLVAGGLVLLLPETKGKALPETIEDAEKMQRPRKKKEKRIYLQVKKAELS

OCT2 [2] = molecular target: T1, OCT2; experiment: […]TEA uptake in OCT2-transfected HEK293 cells

SMILES | Ki (OCT2 [1]) [µM] | TEA and ASP+ uptake inhibition in mOct1-transfected HEK293 cells (mouse Oct1) | TEA and ASP+ uptake inhibition in mOct2-transfected HEK293 cells (mouse Oct2) | [14C]TEA uptake in OCT2-transfected HEK293 cells (OCT2 [2])
Cc1ccc(C(=O)Cn2c3c(sc2=N)CCCC3)cc1 [pifithrin-α] | 3.04 | pifithrin-α reduced uptake of TEA in Oct1 and Oct2 overexpressing HEK293 cells (Fig. 5A) | pifithrin-α reduced uptake of TEA in Oct1 and Oct2 overexpressing HEK293 cells (Fig. 5A) | –
CC[N+](CC)(CC)CC [tetraethylammonium] | – | – | – | kinetic analyses were performed with and without pifithrin-α using varying concentrations of TEA as the OCT2 substrate
